Data on 21 compounds can be found in patent publication US8680111B2 (Pfizer Inc., priority 2012, dated 2014).

Test [1] has as its target T1, human recombinant wild-type ALK kinase domain (amino acids 1093-1411) (Homo sapiens, UniProt Q9UM73).
T1 construct: ALK kinase domain (amino acids 1093-1411); made in house
Briefly: Wild-type ALK enzyme assay (microfluidic mobility shift). The class given is biochemical. Particulars: ATP 60 μM, competitive inhibition fit, read-out: WT ALK enzyme assay (Ki).
Description: The reactions were incubated for 1 h at room temperature, stopped by the addition of 0.1 M EDTA, pH 8, and the extent of reactions (˜15-20% conversion with no inhibitor) was determined after electrophoretic separation of the fluorescently labeled peptide substrate and phosphorylated product on an LabChip EZ Reader II (Caliper Life Sciences, Hopkinton, Mass.).

The target of test [2] is T2, human recombinant L1196M ALK kinase domain (amino acids 1093-1411) (Homo sapiens, UniProt Q9UM73, L1196M).
T2 construct: ALK kinase domain (amino acids 1093-1411); made in house
Briefly: L1196M mutant ALK enzyme assay (microfluidic mobility shift). The class given is biochemical. Particulars: ATP 60 μM, 0.5 nM enzyme, competitive inhibition fit; read-out: L1196M ALK enzyme assay (Ki).

The target in test [3] is T3, WT EML4-ALK (NIH-3T3 EML4-ALK wt v1 cells) (Homo sapiens, UniProt Q9UM73).
T3 construct: expressed in transfected cells; the other entry of the earlier key: EML4 (Q9HC35, Echinoderm microtubule-associated protein-like 4)
The test is described as follows: Cellular phospho-ALK (Tyr1604) ELISA assay for WT EML4-ALK. The following applies: 1 hour, read-out: ELISA assay for WT EML4-ALK (IC50). Type of test: cell-based. A general note: An ELISA detects its analyte on a solid surface through an enzyme-linked reagent.

Test [4] has as its target T4, L1196M EML4-ALK (NIH-3T3 EML4-ALK v1 L1196M cells) (Homo sapiens, UniProt Q9UM73, L1196M).
T4 construct: expressed in transfected cells; the other entry of the earlier key: EML4 (Q9HC35, Echinoderm microtubule-associated protein-like 4)
Briefly: Cellular phospho-ALK (Tyr1604) ELISA assay for L1196M EML4-ALK. Type of test: cell-based. The following applies: NIH-3T3 EML4-ALK v1 L1196M cells, 1 hour, phospho-ALK (Tyr1604); read-out: ELISA assay for L1196M EML4-ALK (IC50).
Description: Cellular Phospho-ALK (Tyr1604) ELISA Assay for EML4-ALK:
The cells were maintained at 37° C. in a 5% CO2 incubator in DMEM (Invitrogen, Carlsbad, Calif.) medium supplemented with 1% L-glutamine, 1% penicillin and streptomycin, 1 ug/ml puromycin and 10% new born calf serum (NCS) in T-75 flasks.
Cells were washed with PBS and re-suspended in DMEM medium supplemented with 0.5% NCS and 1% pen/strep and seeded into 96-well plates at density of 20,000 cells/well/100 μl and incubated in the incubator at 37° C. and 5% CO2. After 20 hours of incubation, 100 μl of assay media (DMEM) in presence of designated PF-compounds concentrations or controls (DMSO) were added into plates and incubated for 1 hour in the incubator. Media was then removed and lysis buffer, containing phosphatase inhibitors and phenylmethanesulfonyl fluoride (PMSF), was added to wells and shaken at 4° C. for 30 minutes to generate protein lysates.
A phospho-ALK (Tyr1604) rabbit antibody was coated onto the 96-well microplates. 50 μl of cell lysates were added to the antibody coated plate and incubated at room temperature for 2 hours. Following extensive washing with 0.1% Tween 20 in PBS to remove unbound materials, ALK mouse mAb was added to detect captured phospho-ALK (Tyr1604) and phospho-ALK fusion proteins. Anti-mouse IgG, HRP-linked antibody was then used to recognize the bound detection antibody. Finally, the chemiluminescent reagent was added and incubated for 10 minutes for signal development. The assay plates were read in the Envision plate reader in the luminescent mode. IC50 values were calculated by a concentration-response curve fitting using a four-parameter analytic method.

As usually defined, the Ki is the equilibrium dissociation constant of an inhibitor or competing ligand from its target. In general, IC50 refers to the midpoint of a concentration-inhibition curve.

Regarding `CC1Oc2nc(cnc2N)-c2c(nn(C)c2C#N)Cn2ccnc2-c2ccc(F)cc21` (single isomer, unassigned) [Example 108, 8-amino-3-fluoro-5,13-dimethyl-13,15-dihydro-5H-7,11-(azeno)imidazo[1,2-k]pyrazolo[4,3-h][2,5,11]benzoxadiazacyclotetradecine-12-carbonitrile], the Ki in test [1] is < 0.06 nM; in test [2], < 0.05 nM. For the same compound, the IC50 turned out to be 0.068 nM in test [3] and 0.5 nM in test [4].

On to `C[C@H]1Oc2cc(cnc2N)-c2c(C#N)nn(C)c2CN(C)C(=O)c2ccc(F)cc21` [Example 114, (10R)-7-amino-12-fluoro-1,10,16-trimethyl-15-oxo-10,15,16,17-tetrahydro-1H-8,4-(metheno)pyrazolo[4,3-h][2,5,11]benzoxadiazacyclotetradecine-3-carbonitrile], for which the Ki in test [1] is 0.271 nM; in test [2] it was 1.36 nM. For the same compound, the IC50 in test [3] is 3.29 nM; in test [4], 78.2 nM.

Consider “7-amino-12-fluoro-3-methoxy-1,16,17-trimethyl-16,17-dihydro-1H-8,4-(azeno)pyrazolo[4,3-h][2,5,11]benzoxadiazacyclotetradecin-15(10H)-one [Example 124]”, for which the results for the Ki in test [1] and in test [2] were 2.1 nM and 7.4 nM, respectively. In addition, the half-inhibitory concentration (IC50) in test [3] was 56.2 nM; in test [4] it was 873 nM.

`COc1snc2c1-c1cnc(N)c(n1)O[C@H](C)c1cc(F)ccc1C(=O)N(C)C2` [Example 51, (10R)-7-amino-12-fluoro-3-methoxy-10,16-dimethyl-16,17-dihydro-8,4-(azeno)[1,2]thiazolo[4,3-h][2,5,11]benzoxadiazacyclotetradecin-15(10H)-one]: the Ki in test [1] is 0.13 nM; in test [2], 0.28 nM. The values for the IC50 in test [3] and in test [4] were 0.95 nM and 6.25 nM, respectively.

As to `CC1Oc2nc(cnc2N)-c2c(nn(C)c2C#N)Cn2ccnc2-c2ccc(F)cc21` (single isomer, unassigned) [Example 109, 8-amino-3-fluoro-5,13-dimethyl-13,15-dihydro-5H-7,11-(azeno)imidazo[1,2-k]pyrazolo[4,3-h][2,5,11]benzoxadiazacyclotetradecine-12-carbonitrile], the results for the Ki in test [1] and in test [2] were 8.1 nM and 4.7 nM, respectively. Further, the figures for the IC50 in test [3] and in test [4] were 11 nM and 55.6 nM, respectively.

As to `CCC1Oc2cc(cnc2N)-c2c(OC)nn(C)c2CN(C)C(=O)c2ccc(F)cc21` (single isomer, unassigned) [Example 23, 7-amino-10-ethyl-12-fluoro-3-methoxy-1,16-dimethyl-16,17-dihydro-1H-8,4-(metheno)pyrazolo[4,3-h][2,5,11]benzoxadiazacyclotetradecin-15(10H)-one], the Ki in test [1] is < 0.2 nM; in test [2], 0.29 nM. Moreover, the IC50 in test [3] amounted to 0.77 nM; in test [4], 10.1 nM.

Take `Cc1nn(C)c2c1-c1cnc(N)c(c1)OC(C)c1cc(F)ccc1C(=O)N(C1CC1)C2` (single isomer, unassigned) [Example 11, 7-amino-16-cyclopropyl-12-fluoro-1,3,10-trimethyl-16,17-dihydro-1H-8,4-(metheno)pyrazolo[4,3-h][2,5,11]benzoxadiazacyclotetradecin-15(10H)-one]: the Ki in test [1] was < 0.2 nM; in test [2], 1.1 nM. For the same compound, the IC50 was 1.21 nM in test [3] and 27.7 nM in test [4].

With `CN1Cc2ccc(S(C)(=O)=O)cc2-c2cnc(N)c(c2)OCc2cc(F)ccc2C1=O` [Example 5, 8-amino-3-fluoro-17-methyl-13-(methylsulfonyl)-16,17-dihydro-7,11-(metheno)dibenzo[g,l][1,4,10]oxadiazacyclotetradecin-18(5H)-one], the results for the Ki in test [1] and in test [2] were 0.34 nM and 3.4 nM, respectively. Besides, the IC50 in test [3] was found to be 12.1 nM; in test [4], 156 nM.

Regarding `C[C@H]1Oc2cc(cnc2N)-c2c(C#N)noc2CN(C)C(=O)c2ccc(F)cc21` [Example 117, (10R)-7-amino-12-fluoro-10,16-dimethyl-15-oxo-10,15,16,17-tetrahydro-8,4-(metheno)[1,2]oxazolo[4,5-h][2,5,11]benzoxadiazacyclotetradecine-3-carbonitrile], the Ki in test [1] came to 2.18 nM; in test [2], 17.8 nM. The values for the IC50 in test [3] and in test [4] were 35.2 nM and 393 nM, respectively.

For the compound `COc1noc2c1-c1cnc(N)c(c1)O[C@H](C)c1cc(F)ccc1C(=O)N(C)C2` [Example 111, (10R)-7-amino-12-fluoro-3-methoxy-10,16-dimethyl-16,17-dihydro-8,4-(metheno)[1,2]oxazolo[4,5-h][2,5,11]benzoxadiazacyclotetradecin-15(10H)-one], the Ki in test [1] was 0.059 nM; in test [2], 0.54 nM. Further, the IC50 stood at 1.42 nM in test [3] and 32.5 nM in test [4].

Consider `CN1Cc2nn(C)c(C#N)c2-c2cnc(N)c(n2)OCc2cc(F)ccc2C1=O` [Example 46, 7-amino-12-fluoro-2,16-dimethyl-15-oxo-10,15,16,17-tetrahydro-2H-8,4-(azeno)pyrazolo[4,3-h][2,5,11]benzoxadiazacyclotetradecine-3-carbonitrile], for which the Ki in test [1] came to 0.15 nM; in test [2], 1.1 nM. The IC50 came to 10.4 nM in test [3] and 44.7 nM in test [4].

As to `Cc1n[nH]c2c1-c1cnc(N)c(c1)OCc1cc(F)ccc1OCCC2` [Example 38, 12-fluoro-3-methyl-1,16,17,18-tetrahydro-10H-8,4-(metheno)pyrazolo[3,4-e][1,12,9]benzodioxazacyclopentadecin-7-amine], the Ki in test [1] is 0.61 nM; in test [2] it was 5.7 nM. In addition, the results for the IC50 in test [3] and in test [4] were 12 nM and 201 nM, respectively.

For `COc1nn(C)c2c1-c1cnc(N)c(c1)OC(C1CC1)c1cc(F)ccc1C(=O)N(C)C2` (single isomer, unassigned) [Example 25, 7-amino-10-cyclopropyl-12-fluoro-3-methoxy-1,16-dimethyl-16,17-dihydro-1H-8,4-(metheno)pyrazolo[4,3-h][2,5,11]benzoxadiazacyclotetradecin-15(10H)-one], the Ki in test [1] is < 0.2 nM; in test [2], 0.56 nM. In addition, the IC50 in test [3] came out at 1.35 nM; in test [4], 21.9 nM.

As for `C[C@H]1Oc2cc(cnc2N)-c2cc(S(C)(=O)=O)ccc2CN(C)Cc2ccc(F)cc21` [Example 35, (5R)-3-fluoro-5,17-dimethyl-13-(methylsulfonyl)-5,16,17,18-tetrahydro-7,11-(metheno)dibenzo[g,l][1,4,10]oxadiazacyclotetradecin-8-amine], the figures for the Ki in test [1] and in test [2] were < 0.261 nM and 1.1 nM, respectively. Further, the values for the IC50 in test [3] and in test [4] were 0.98 nM and 14.3 nM, respectively.

As to `CC1c2nn(C)c(C#N)c2-c2cnc(N)c(n2)OCc2cc(F)ccc2C(=O)N1C` (stereo not drawn) [Example 78, 7-amino-12-fluoro-2,16,17-trimethyl-15-oxo-10,15,16,17-tetrahydro-2H-8,4-(azeno)pyrazolo[4,3-h][2,5,11]benzoxadiazacyclotetradecine-3-carbonitrile], the Ki in test [1] turned out to be 2.93 nM; in test [2], 9.61 nM. Also, the IC50 in test [3] is 40.8 nM; in test [4], 350 nM.

For the compound `CCc1noc2c1-c1cnc(N)c(n1)O[C@H](C)c1cc(F)ccc1C(=O)N(C)C2` [Example 47, (10R)-7-amino-3-ethyl-12-fluoro-10,16-dimethyl-16,17-dihydro-8,4-(azeno)[1,2]oxazolo[4,5-h][2,5,11]benzoxadiazacyclotetradecin-15(10H)-one], the values for the Ki in test [1] and in test [2] were 0.29 nM and 3.6 nM, respectively. The IC50 in test [4] stood at 208 nM.

As to `C[C@H]1Oc2cc(cnc2N)-c2c(nnn2C2CC2)CN(C)C(=O)c2ccc(F)cc21` [Example 137, (10R)-7-amino-3-cyclopropyl-12-fluoro-10,16-dimethyl-16,17-dihydro-3H-8,4-(metheno)[1,2,3]triazolo[4,5-h][2,5,11]benzoxadiazacyclotetradecin-15(10H)-one], the results for the Ki in test [1] and in test [2] were 6.1 nM and 72.4 nM, respectively. Also, the IC50 in test [4] stood at 2280 nM.

Turning to `Cn1nc2c(c1C#N)-c1cnc(N)c(n1)OCc1cc(F)ccc1COC2` [Example 107, 7-amino-12-fluoro-2-methyl-2,10,15,17-tetrahydro-8,4-(azeno)pyrazolo[4,3-h][2,11,5]benzodioxazacyclotetradecine-3-carbonitrile], the Ki in test [1] came to 88.5 nM; in test [2], 179 nM.

As for `Cc1nn(S(=O)(=O)N(C)C)c2c1-c1cnc(N)c(c1)OCc1cc(F)ccc1OCCC2` [Example 44, 7-amino-12-fluoro-N,N,3-trimethyl-17,18-dihydro-10H-8,4-(metheno)-pyrazolo[3,4-e][1,12,9]benzodioxazacyclopentadecine-1(16H)-sulfonamide], the Ki in test [1] came to 12 nM; in test [2] it was 70 nM.

For the compound “7-amino-12-fluoro-3-methoxy-1,16,17-trimethyl-16,17-dihydro-1H-8,4-(azeno)pyrazolo[4,3-h][2,5,11]benzoxadiazacyclotetradecin-15(10H)-one [Example 128]”, the results for the Ki in test [1] and in test [2] were 138 nM and 386 nM, respectively.

`CN1Cc2ccccc2-c2cnc(N)c(c2)OCc2cc(F)ccc2C1=O` [Example 7, 8-amino-3-fluoro-17-methyl-16,17-dihydro-7,11-(metheno)dibenzo[g,l]-[1,4,10]oxadiazacyclotetradecin-18(5H)-one]: in test [2], the Ki stood at 14 nM. The IC50 in test [3] is 155 nM; in test [4] it was 2680 nM.
